The values below come from article PMC4696607 (ACS infectious diseases, 2015).

Molecules are shown by their SMILES.

One may read the EC50 as the concentration needed to bring the measured effect to its halfway point. A higher EC50 goes with a need for much substance. What is called IC50 is the midpoint of a concentration-inhibition curve. The inhibition is the relative decrease from the control value, in per cent. As usually defined, the CC50 is the concentration giving 50% cytotoxicity. Lower therefore signals greater toxicity to the cells.

One data set deals with BHK-21 cells. Put plainly: MTT cell proliferation cytotoxicity assay, BHK-21. It is filed as cell-based. As to conditions: for CC50 relative to IC50 (fold higher): BHK-21 CC50 vs in vitro IC50; for CC50: BHK-21 cells, MTT, 42 h.
Another data set deals with WNV. Put plainly: microbe, parasite or virus in culture. The format is cell-based, West Nile virus (WNV). As to conditions: West Nile virus, 42 h.
For data set [1], the target named is T1, WNV MTase (West Nile virus, UniProt Q9Q6P4). Put plainly: N7 methylation inhibition assay, WNV MTase. The following applies: for IC50: WNV MTase.
T1 sequence (Q9Q6P4 2529-2794): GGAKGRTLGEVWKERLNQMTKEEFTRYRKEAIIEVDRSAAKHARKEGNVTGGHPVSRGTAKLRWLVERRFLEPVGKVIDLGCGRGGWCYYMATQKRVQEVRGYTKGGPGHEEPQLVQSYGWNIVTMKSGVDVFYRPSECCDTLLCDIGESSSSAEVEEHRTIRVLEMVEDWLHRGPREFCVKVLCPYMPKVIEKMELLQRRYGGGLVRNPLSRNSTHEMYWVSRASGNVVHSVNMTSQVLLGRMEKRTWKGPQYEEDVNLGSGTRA
The target of data set [2] is T1, WNV MTase. Put plainly: 2′-O methylation inhibition assay, WNV MTase.
A further data set has as its system DENV-2. Put plainly: microbe, parasite or virus in culture. The following applies: Dengue virus, DENV2, A549, 42 h. The format is cell-based, Dengue virus (DENV-2).
The next data set deals with SLEV. Put plainly: organism not typed. As to conditions: A549, 42 h. It is filed as cell-based, St. Louis encephalitis viruses (SLEV).
The next data set concerns JEV. Put plainly: microbe, parasite or virus in culture. The format is cell-based, Japanese encephalitis virus (JEV). As to conditions: Japanese encephalitis virus, A549, 42 h.
Another data set concerns VSV. It is filed as cell-based.
The next data set relates to WEEV. The format is cell-based.
The test system of data set [3] is anthrax lethal factor (LF). The following applies: cited from earlier work.
The subject of data set [4] is herpes simplex virus (HSV)-1. The following applies: cited from earlier work.
For data set [5] the following is noted: cited from earlier work.
The target of another data set is DENV3MTase (Dengue virus type 3, UniProt Q6YMS4). Put plainly: Competitive SAM binding assay.
DENV3MTase, sequence (Q6YMS4 2492-2753): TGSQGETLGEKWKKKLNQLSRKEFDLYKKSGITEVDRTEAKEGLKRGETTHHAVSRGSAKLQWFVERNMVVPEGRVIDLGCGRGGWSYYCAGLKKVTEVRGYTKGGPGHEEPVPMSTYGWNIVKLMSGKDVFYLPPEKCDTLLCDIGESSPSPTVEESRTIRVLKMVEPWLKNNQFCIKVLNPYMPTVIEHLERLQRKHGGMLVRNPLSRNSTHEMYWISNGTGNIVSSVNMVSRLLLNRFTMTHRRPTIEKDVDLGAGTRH
The mark [6] stands for this setting: IC50 N7, with CHAPS, with CHAPS.
[7] abbreviates: read-out: IC50 N7, no CHAPS, no CHAPS.
The mark [8] stands for this setting: read-out: IC50 2′-O, with CHAPS, WNV MTase, with CHAPS.

With `Nc1ccc(-c2ccc(Nc3cc(S(=O)(=O)O)c(N)c4c3C(=O)c3ccccc3C4=O)cc2)c(S(=O)(=O)O)c1` [NSC 125910], in the data set on BHK-21 cells, the “CC50 relative to IC50 (fold higher)” value was 20 fold. For the same compound, in the data set on WNV, the response was half-maximal at 2.6 µM (EC50). The IC50 against WNV MTase [1] (IC50 N7, no CHAPS, no CHAPS) turned out to be 7.6 µM; at WNV MTase [1] (setting [6]), 17.6 µM; on WNV MTase [2] it was 3.2 µM.

Take `Cc1cc(N)c2cc(NC(=O)Nc3ccc4nc(C)cc(N)c4c3)ccc2n1` [NSC 12155, aminoquinuride]: the “CC50 relative to IC50 (fold higher)” value with BHK-21 cells is given as 20 fold. Besides, the EC50 stood at 1 µM in the data set with WNV, 7 µM in the data set with DENV-2, 5.1 µM with SLEV and 3.1 µM with JEV. For the same compound, the “inhibition of virus growth” value with VSV and with WEEV was “did not inhibit” each time. Further, the “anthrax lethal factor (LF) activity” value in data set [3] was “inhibited”. Also, the “cell adhesion by HSV-1” value in data set [4] is listed as “prevent cell adhesion”. Also, the binding to glycosaminoglycans result in data set [5] is “bind to glycosaminoglycans”. Besides, the IC50 against WNV MTase [1] (IC50 N7, no CHAPS, no CHAPS) is 1.4 µM; against WNV MTase [1] (setting [6]), 0.87 µM; at WNV MTase [2], 3 µM; on DENV3MTase, 1.2 µM.

As for `S=C(Nc1ccc2c(c1)Cc1ccccc1-2)Nc1ccc2c(c1)Cc1ccccc1-2` [NSC 23217], the IC50 was 15.7 µM against WNV MTase [1] (IC50 N7, no CHAPS, no CHAPS); greater than 300 µM against WNV MTase [1] (setting [6]); 7.4 µM at WNV MTase [2].

With `Nc1ncnc2c1ncn2[C@@H]1O[C@H](C[C@@H](N)CC[C@H](N)C(=O)O)[C@@H](O)[C@H]1O` [SIN, sinefungin, reference compound], on WNV MTase [1] (N7 inhibition with detergent CHAPS), the “effect of CHAPS on inhibition activity” value was “not affected at all”. Moreover, on WNV MTase [1] (read-out: inhibition of N7 activity of the WNV MTase), the inhibition at 150 µM was roughly 80%.

For the compound `O=C1C2=C(Nc3cc([N+](=O)[O-])ccc3N2)OC1c1ccc(C2OC3=C(Nc4ccc([N+](=O)[O-])cc4N3)C2=O)cc1` (stereo not shown) [NSC 372295], in the data set on BHK-21 cells, the CC50 was 126 µM. In addition, the IC50 at WNV MTase [1] (setting [7]) was 62 µM; on WNV MTase [2] (setting [8]), 57 µM.

Turning to `CC1OC(CC(=O)O)Cc2c1c(O)c1c(O)cc(-c3cc(=O)c4c(=O)c5c(c(=O)c=4c3=O)CC(CC(=O)O)OC5C)c(O)c1c2O` (stereo not shown) [NSC 293161], the CC50 with BHK-21 cells turned out to be 25 µM. In addition, the IC50 on WNV MTase [1] (setting [7]) was 13.2 µM; at WNV MTase [1] (read-out: IC50 N7, with CHAPS, with CHAPS), 31 µM; at WNV MTase [2] (setting [8]), 54.6 µM.

As to `Nc1nc(-c2cccc([N+](=O)[O-])c2)cc(-c2cc(-c3cccc([N+](=O)[O-])c3)nc(N)n2)n1` [NSC 371880], in the data set on BHK-21 cells, half-maximal cytotoxicity (CC50) was put at 212 µM. The figures for the IC50 at WNV MTase [1] (setting [7]) and at WNV MTase [2] (setting [8]) were 63 µM and 72 µM, respectively.
